According to ChEMBL document CHEMBL6134816, “The discovery of novel N-heterocyclic-based AKT inhibitors with potential efficacy against prostate cancer” (Eur J Med Chem, 2025):
pIC50: −log10 of the molar value. Blank lines part the entries; values can stand above or below the molecule they belong to. Activity calls are given as the source filed them. The calls are words filed in the database; no cut-off is given here.

Legend:
PC-3 [1] = experiment: cells; settings: Homo sapiens, PC-3, 72 h
Description: Antiproliferative activity against human PC-3 cells assessed as inhibition of cell proliferation incubated for 72 hrs by MTT assay

PC-3 [2] = experiment: Cell cycle arrest in human PC-3 cells assessed as accumulation of cells at G2 phase at 10 uM incubated for 48 hrs by PI staining based flow cytometric analysis (reference value: 14.45 %); assay type: functional
[3] = molecular target: RAC-gamma serine/threonine-protein kinase (Homo sapiens) (UniProt Q9Y243); experiment: Inhibition of AKT3 (unknown origin) using biotin-tagged STK as substrate at 10 nM incubated for 40 mins in presence of ATP by fluorescence based microplate reader analysis relative to control
RAC-gamma serine/threonine-protein kinase (Homo sapiens), sequence (Q9Y243 whole entry): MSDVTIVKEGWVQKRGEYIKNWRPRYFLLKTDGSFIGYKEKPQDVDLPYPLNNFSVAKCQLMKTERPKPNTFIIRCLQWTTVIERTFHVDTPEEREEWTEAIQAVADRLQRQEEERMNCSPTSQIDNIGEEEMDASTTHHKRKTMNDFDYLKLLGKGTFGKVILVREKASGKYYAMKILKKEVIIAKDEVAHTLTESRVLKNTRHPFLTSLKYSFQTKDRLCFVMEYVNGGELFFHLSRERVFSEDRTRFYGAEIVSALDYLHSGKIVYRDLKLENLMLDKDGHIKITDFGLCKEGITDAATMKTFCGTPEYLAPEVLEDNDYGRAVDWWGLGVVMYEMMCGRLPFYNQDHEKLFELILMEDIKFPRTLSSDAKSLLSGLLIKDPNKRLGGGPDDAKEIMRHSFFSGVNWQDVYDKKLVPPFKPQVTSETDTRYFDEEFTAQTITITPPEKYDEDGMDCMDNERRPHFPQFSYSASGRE

PC-3 [4] = experiment: Cell cycle arrest in human PC-3 cells assessed as accumulation of cells at G2 phase at 1 uM incubated for 48 hrs by PI staining based flow cytometric analysis (reference value: 14.45 %); assay type: functional
[5] = Oral bioavailability in male ICR mouse at 10 mg/kg measured after 24 hrs by LC-MS/MS analysis; assay type: ADME, organism-based; settings: in vivo
[6] = Clearance in male ICR mouse at 1 mg/kg, iv measured after 24 hrs by LC-MS/MS analysis; assay type: ADME, organism-based; settings: in vivo
[7] = Volume of distribution in male ICR mouse at 1 mg/kg, iv measured after 24 hrs by LC-MS/MS analysis; assay type: ADME, organism-based; settings: in vivo
[8] = molecular target: Ribosomal protein S6 kinase beta-1 (Homo sapiens) (UniProt P23443); experiment: Inhibition of p70S6K (unknown origin) at 1 uM relative to control
Ribosomal protein S6 kinase beta-1 (Homo sapiens), sequence (P23443 whole entry, looked up): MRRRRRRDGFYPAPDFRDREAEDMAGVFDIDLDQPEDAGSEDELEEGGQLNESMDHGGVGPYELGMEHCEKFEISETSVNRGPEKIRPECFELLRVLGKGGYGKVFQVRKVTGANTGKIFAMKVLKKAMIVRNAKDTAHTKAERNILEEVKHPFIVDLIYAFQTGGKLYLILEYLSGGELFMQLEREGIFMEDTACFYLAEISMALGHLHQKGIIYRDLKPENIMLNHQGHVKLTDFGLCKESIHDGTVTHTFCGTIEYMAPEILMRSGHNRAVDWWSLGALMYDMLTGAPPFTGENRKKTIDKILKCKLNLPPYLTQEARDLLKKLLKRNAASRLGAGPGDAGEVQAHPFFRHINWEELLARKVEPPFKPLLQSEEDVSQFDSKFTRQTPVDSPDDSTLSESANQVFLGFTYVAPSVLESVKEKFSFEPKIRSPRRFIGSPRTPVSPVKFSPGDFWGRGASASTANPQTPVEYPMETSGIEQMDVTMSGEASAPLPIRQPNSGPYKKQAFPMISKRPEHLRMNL

[9] = molecular target: Rho-associated protein kinase 1 (Homo sapiens) (UniProt Q13464); experiment: Inhibition of ROCK1 (unknown origin) at 1 uM relative to control
Rho-associated protein kinase 1 (Homo sapiens), sequence (Q13464 2-1354 limits assumed): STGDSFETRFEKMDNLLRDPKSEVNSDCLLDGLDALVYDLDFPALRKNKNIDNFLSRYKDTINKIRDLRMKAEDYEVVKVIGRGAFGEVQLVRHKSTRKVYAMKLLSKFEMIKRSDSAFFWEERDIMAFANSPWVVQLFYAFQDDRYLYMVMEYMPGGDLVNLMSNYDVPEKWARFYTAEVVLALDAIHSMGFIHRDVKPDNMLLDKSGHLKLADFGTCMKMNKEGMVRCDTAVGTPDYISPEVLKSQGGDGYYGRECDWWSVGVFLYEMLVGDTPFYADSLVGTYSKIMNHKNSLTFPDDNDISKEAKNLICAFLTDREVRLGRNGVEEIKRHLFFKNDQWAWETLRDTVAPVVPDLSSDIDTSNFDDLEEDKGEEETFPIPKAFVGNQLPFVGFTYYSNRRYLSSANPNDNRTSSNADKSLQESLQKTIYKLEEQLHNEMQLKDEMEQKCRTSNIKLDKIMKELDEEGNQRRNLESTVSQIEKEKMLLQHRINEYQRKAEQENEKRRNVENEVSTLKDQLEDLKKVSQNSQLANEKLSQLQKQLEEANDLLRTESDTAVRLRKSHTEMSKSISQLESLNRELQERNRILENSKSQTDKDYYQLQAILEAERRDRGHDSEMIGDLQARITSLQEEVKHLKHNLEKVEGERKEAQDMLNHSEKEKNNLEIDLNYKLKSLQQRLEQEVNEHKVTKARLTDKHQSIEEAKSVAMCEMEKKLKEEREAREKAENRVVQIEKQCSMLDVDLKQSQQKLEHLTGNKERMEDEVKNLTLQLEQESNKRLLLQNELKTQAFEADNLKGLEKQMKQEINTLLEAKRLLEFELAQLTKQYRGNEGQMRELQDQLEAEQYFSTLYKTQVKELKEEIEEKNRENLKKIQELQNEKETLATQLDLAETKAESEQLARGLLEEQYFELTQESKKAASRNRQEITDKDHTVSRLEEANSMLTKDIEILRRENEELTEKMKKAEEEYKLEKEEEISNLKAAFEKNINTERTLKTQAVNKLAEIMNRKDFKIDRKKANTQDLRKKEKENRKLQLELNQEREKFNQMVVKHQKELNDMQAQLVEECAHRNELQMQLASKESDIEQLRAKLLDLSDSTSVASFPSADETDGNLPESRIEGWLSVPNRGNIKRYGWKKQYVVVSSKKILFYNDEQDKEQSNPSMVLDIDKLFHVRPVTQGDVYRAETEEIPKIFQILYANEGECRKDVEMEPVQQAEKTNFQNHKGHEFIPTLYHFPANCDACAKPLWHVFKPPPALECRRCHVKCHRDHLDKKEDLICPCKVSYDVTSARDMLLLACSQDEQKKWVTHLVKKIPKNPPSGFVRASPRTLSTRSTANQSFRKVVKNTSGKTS

[10] = MRT (0 to infinity) in male ICR mouse at 10 mg/kg, po measured after 24 hrs by LC-MS/MS analysis; assay type: ADME, organism-based; settings: in vivo
[11] = molecular target: Serine/threonine-protein kinase B-raf (Homo sapiens) (UniProt P15056); experiment: Inhibition of B-raf (unknown origin) at 1 uM relative to control
Serine/threonine-protein kinase B-raf (Homo sapiens), sequence (P15056 whole entry): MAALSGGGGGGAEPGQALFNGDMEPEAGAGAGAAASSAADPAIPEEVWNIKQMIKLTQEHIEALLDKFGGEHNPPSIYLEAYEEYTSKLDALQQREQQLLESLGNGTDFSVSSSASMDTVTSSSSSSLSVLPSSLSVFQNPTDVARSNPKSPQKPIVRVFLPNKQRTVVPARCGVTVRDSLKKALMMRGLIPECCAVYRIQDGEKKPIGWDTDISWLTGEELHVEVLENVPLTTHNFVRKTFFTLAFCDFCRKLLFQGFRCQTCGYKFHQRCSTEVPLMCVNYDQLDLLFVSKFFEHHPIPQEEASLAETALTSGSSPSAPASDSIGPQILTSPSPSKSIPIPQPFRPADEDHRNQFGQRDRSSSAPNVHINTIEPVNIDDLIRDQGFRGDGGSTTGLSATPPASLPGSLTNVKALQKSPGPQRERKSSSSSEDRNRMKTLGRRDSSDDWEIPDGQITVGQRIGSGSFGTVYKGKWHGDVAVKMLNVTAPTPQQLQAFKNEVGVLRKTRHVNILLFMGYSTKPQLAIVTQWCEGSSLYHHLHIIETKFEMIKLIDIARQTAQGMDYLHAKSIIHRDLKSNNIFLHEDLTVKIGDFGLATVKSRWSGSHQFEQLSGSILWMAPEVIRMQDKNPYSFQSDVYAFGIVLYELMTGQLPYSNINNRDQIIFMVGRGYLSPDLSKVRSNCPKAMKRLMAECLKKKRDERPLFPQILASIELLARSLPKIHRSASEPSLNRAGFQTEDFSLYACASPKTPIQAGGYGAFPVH

PC-3 [12] = experiment: Induction of apoptosis in human PC-3 cells assessed as apoptotic rate at 1 uM incubated for 48 hrs by Annexin V-FITC/PI staining based flow cytometric analysis relative to control; assay type: functional
[13] = Half-life in male ICR mouse at 1 mg/kg, iv measured after 24 hrs by LC-MS/MS analysis; assay type: ADME, organism-based; settings: in vivo
PC-3 [14] = experiment: Induction of apoptosis in human PC-3 cells assessed as apoptotic rate at 5 to 10 uM incubated for 48 hrs by Annexin V-FITC/PI staining based flow cytometric analysis relative to control; assay type: functional; settings: dose 5-10 µM
PC-3 [15] = experiment: Cell cycle arrest in human PC-3 cells assessed as accumulation of cells at S phase at 5 uM incubated for 48 hrs by PI staining based flow cytometric analysis (reference value: 24.79 %); assay type: functional
PC-3 [16] = experiment: Upregulation of phosphorylated AKT expression level in human PC-3 cells at 1 to 10 uM incubated for 24 hrs by Western blot analysis; assay type: functional, cell-based; settings: dose 1-10 µM
[17] = molecular target: RAC-beta serine/threonine-protein kinase (Homo sapiens) (UniProt P31751); experiment: Inhibition of AKT2 (unknown origin) using biotin-tagged STK as substrate at 10 nM incubated for 40 mins in presence of ATP by fluorescence based microplate reader analysis relative to control
RAC-beta serine/threonine-protein kinase (Homo sapiens), sequence (P31751 whole entry): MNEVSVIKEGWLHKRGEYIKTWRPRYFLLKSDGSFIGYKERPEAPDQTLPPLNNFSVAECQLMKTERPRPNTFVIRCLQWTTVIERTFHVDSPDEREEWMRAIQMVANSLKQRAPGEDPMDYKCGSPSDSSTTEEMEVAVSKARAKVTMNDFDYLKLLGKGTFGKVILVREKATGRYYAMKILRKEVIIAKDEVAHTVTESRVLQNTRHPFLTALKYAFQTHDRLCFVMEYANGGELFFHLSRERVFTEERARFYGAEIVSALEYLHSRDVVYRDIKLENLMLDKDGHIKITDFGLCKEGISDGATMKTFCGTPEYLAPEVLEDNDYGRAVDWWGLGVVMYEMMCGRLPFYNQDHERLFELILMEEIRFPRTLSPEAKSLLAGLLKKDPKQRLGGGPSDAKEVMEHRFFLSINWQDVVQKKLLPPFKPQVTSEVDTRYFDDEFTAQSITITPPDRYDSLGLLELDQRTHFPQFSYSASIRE

[18] = AUC (0 to t) in male ICR mouse at 10 mg/kg, po measured after 24 hrs by LC-MS/MS analysis; assay type: ADME, organism-based; settings: in vivo
PC-3 [19] = experiment: Inhibition of AKT signaling pathway in human PC-3 cells assessed as reduction in phosphorylated GSK3beta level at 1 to 10 uM incubated for 24 hrs by Western blot analysis; assay type: cell-based; settings: dose 1-10 µM
PC-3 [20] = experiment: Cell cycle arrest in human PC-3 cells assessed as accumulation of cells at G2 phase at 5 uM incubated for 48 hrs by PI staining based flow cytometric analysis (reference value: 14.45 %); assay type: functional
[21] = molecular target: Cyclin-dependent kinase 1 (Homo sapiens) (UniProt P06493); experiment: Inhibition of CDK1 (unknown origin) at 1 uM relative to control
Cyclin-dependent kinase 1 (Homo sapiens), sequence (P06493 whole entry, looked up): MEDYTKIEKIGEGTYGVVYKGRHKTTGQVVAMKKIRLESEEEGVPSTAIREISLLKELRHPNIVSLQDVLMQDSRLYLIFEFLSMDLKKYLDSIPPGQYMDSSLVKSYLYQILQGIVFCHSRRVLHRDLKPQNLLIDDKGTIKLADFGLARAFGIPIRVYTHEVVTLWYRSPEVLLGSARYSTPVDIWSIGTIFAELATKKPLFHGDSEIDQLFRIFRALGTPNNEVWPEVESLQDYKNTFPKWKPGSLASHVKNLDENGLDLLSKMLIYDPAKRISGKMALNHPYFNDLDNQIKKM

PC-3 [22] = experiment: Cell cycle arrest in human PC-3 cells assessed as accumulation of cells at G1 phase at 5 uM incubated for 48 hrs by PI staining based flow cytometric analysis (reference value: 60.75 %); assay type: functional
PC-3 [23] = experiment: Cell cycle arrest in human PC-3 cells assessed as accumulation of cells at G1 phase at 10 uM incubated for 48 hrs by PI staining based flow cytometric analysis (reference value: 60.75 %); assay type: functional
[24] = molecular target: Glycogen synthase kinase-3 beta (Homo sapiens) (UniProt P49841); experiment: Inhibition of GSK3beta (unknown origin) at 1 uM relative to control
[25] = AUC (0 to t) in male ICR mouse at 1 mg/kg, iv measured after 24 hrs by LC-MS/MS analysis; assay type: ADME, organism-based; settings: in vivo
[26] = AUC (0 to infinity) in male ICR mouse at 10 mg/kg, po measured after 24 hrs by LC-MS/MS analysis; assay type: ADME, organism-based; settings: in vivo
PC-3 [27] = experiment: Cell cycle arrest in human PC-3 cells assessed as accumulation of cells at S phase at 10 uM incubated for 48 hrs by PI staining based flow cytometric analysis (reference value: 24.79 %); assay type: functional
[28] = MRT (0 to infinity) in male ICR mouse at 1 mg/kg, iv measured after 24 hrs by LC-MS/MS analysis; assay type: ADME, organism-based; settings: in vivo
[29] = molecular target: MAP kinase-interacting serine/threonine-protein kinase 1 (Homo sapiens) (UniProt Q9BUB5); experiment: Inhibition of MNK1 (unknown origin) at 1 uM relative to control
Homo sapiens [30] = species: Homo sapiens; experiment: Inhibition of ABL (unknown origin) at 1 uM relative to control
[31] = Cmax in male ICR mouse at 10 mg/kg, po measured after 24 hrs by LC-MS/MS analysis; assay type: ADME, organism-based; settings: in vivo
[32] = Half-life in male ICR mouse at 10 mg/kg, po measured after 24 hrs by LC-MS/MS analysis; assay type: ADME, organism-based; settings: in vivo
[33] = molecular target: RAF proto-oncogene serine/threonine-protein kinase (Homo sapiens) (UniProt P04049); experiment: Inhibition of RAF-1 (unknown origin) at 1 uM relative to control
PC-3 [34] = experiment: Cell cycle arrest in human PC-3 cells assessed as accumulation of cells at S phase at 1 uM incubated for 48 hrs by PI staining based flow cytometric analysis (reference value: 24.79 %); assay type: functional
[35] = molecular target: Ribosomal protein S6 kinase alpha-1 (Homo sapiens) (UniProt Q15418); experiment: Inhibition of RSK1 (unknown origin) at 1 uM relative to control
Ribosomal protein S6 kinase alpha-1 (Homo sapiens), sequence (Q15418 whole entry): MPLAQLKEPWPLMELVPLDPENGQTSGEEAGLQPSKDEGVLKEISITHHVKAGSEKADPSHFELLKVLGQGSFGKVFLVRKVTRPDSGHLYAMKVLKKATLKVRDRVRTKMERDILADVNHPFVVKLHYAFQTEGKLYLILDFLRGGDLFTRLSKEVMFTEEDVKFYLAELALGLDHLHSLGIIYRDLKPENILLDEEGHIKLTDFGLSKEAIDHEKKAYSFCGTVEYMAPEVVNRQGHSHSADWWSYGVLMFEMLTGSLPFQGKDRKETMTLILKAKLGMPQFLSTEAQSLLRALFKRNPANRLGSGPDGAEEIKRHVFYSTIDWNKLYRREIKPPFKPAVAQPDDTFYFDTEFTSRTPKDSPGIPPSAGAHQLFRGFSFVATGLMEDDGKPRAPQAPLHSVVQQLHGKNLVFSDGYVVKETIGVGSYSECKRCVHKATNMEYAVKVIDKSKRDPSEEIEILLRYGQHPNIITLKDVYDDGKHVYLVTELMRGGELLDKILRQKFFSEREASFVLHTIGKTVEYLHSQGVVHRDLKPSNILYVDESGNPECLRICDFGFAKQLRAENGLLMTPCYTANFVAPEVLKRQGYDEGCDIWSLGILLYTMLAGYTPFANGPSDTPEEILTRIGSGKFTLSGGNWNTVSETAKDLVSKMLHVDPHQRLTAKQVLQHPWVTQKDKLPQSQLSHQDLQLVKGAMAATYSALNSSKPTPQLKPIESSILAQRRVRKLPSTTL

Homo sapiens [36] = species: Homo sapiens; experiment: Inhibition of PKA (unknown origin) at 1 uM relative to control
[37] = molecular target: Tyrosine-protein kinase JAK1 (Homo sapiens) (UniProt P23458); experiment: Inhibition of JAK1 (unknown origin) at 1 uM relative to control
[38] = Tmax in male ICR mouse at 10 mg/kg, po measured after 24 hrs by LC-MS/MS analysis; assay type: ADME, organism-based; settings: in vivo
[39] = AUC (0 to infinity) in male ICR mouse at 1 mg/kg, iv measured after 24 hrs by LC-MS/MS analysis; assay type: ADME, organism-based; settings: in vivo
PC-3 [40] = experiment: Cell cycle arrest in human PC-3 cells assessed as accumulation of cells at G1 phase at 1 uM incubated for 48 hrs by PI staining based flow cytometric analysis (reference value: 60.75 %); assay type: functional

Structure (SMILES): CCn1c(-c2nonc2N)nc2c(C#CC(C)(C)O)ncc(OC[C@H]3CCCNC3)c21 [GSK-690693]
Activity (PC-3 [2]): 3.96% | Activity (PC-3 [4]): 5.77% | Activity (PC-3 [12]): 10.52% | Activity (PC-3 [15]): 46.38% | Activity (PC-3 [20]): 4.98% | Activity (PC-3 [22]): 48.64% | Activity (PC-3 [23]): 48.79% | Activity (PC-3 [27]): 47.26% | Activity (PC-3 [34]): 45.34% | Activity (PC-3 [40]): 48.89%

Structure (SMILES): CNc1nccc(N2CCN(C(=O)C(CNC(C)C)c3ccc(Cl)cc3Cl)CC2)n1 (stereo not given)
pIC50 (PC-3 [1]): 4.56

Structure (SMILES): CC(C)NCC(C(=O)N1CCN(c2ncnc3ccccc23)CC1)c1ccc(Cl)cc1Cl (stereo not given)
pIC50 (PC-3 [1]): < 4.40

Structure (SMILES): CC(C)NCC(C(=O)N1CCN(c2ncnc3[nH]ncc23)CC1)c1ccc(Cl)cc1Cl (stereo not given)
pIC50 (PC-3 [1]): < 4.40

Structure (SMILES): CNc1nccc(N2CCN(C(=O)C(CNC(C)C)c3ccc(Br)cc3)CC2)n1 (stereo not given)
pIC50 (PC-3 [1]): < 4.40

Structure (SMILES): CC(C)NCC(C(=O)N1CCN(c2ncnc3[nH]cnc23)CC1)c1ccc(Cl)cc1Cl (stereo not given)
pIC50 (PC-3 [1]): 4.62

Structure (SMILES): CC(C)NCC(C(=O)N1CCN(c2ncnc3[nH]cnc23)CC1)c1ccc(Br)cc1 (stereo not given)
pIC50 (PC-3 [1]): 4.70

Structure (SMILES): CC(C)NCC(C(=O)N1CCN(c2ncnc3ccccc23)CC1)c1ccc(Br)cc1 (stereo not given)
pIC50 (PC-3 [1]): 4.52

Structure (SMILES): Cc1c[nH]c2ncnc(N3CCN(C(=O)C(CNC(C)C)c4ccc(Cl)cc4Cl)CC3)c12 (stereo not given)
pIC50 (PC-3 [1]): 4.66

Continued by rising pIC50 (PC-3 [1]), values first:

pIC50 (PC-3 [1]): 4.74
Structure (SMILES): CNc1nc(N2CCN(C(=O)C(CNC(C)C)c3ccc(Cl)cc3Cl)CC2)c2cc[nH]c2n1 (stereo not given)

pIC50 (PC-3 [1]): 4.80
Structure (SMILES): Cc1c[nH]c2ncnc(N3CCN(C(=O)C(CNC(C)C)c4ccc(Br)cc4)CC3)c12 (stereo not given)

pIC50 (PC-3 [1]): 4.91
Structure (SMILES): CC(C)NCC(C(=O)N1CCN(c2ncnc3[nH]ncc23)CC1)c1ccc(Br)cc1 (stereo not given)

pIC50 (PC-3 [1]): 5.06
Structure (SMILES): CNc1nc(N2CCN(C(=O)C(CNC(C)C)c3ccc(Br)cc3)CC2)c2cc[nH]c2n1 (stereo not given)

pIC50 (PC-3 [1]): 5.11
Structure (SMILES): CC(C)NCC(C(=O)N1CCN(c2ncnc3[nH]nc(Br)c23)CC1)c1ccc(Cl)cc1Cl (stereo not given)

pIC50 (PC-3 [1]): 5.23
Structure (SMILES): CNc1nc(N2CCN(C(=O)C(CNC(C)C)c3ccc(Cl)cc3Cl)CC2)c2sccc2n1 (stereo not given)

pIC50 (PC-3 [1]): 5.31
Structure (SMILES): CNc1nc(N2CCN(C(=O)C(CNC(C)C)c3ccc(Br)cc3)CC2)c2sccc2n1 (stereo not given)

pIC50 (PC-3 [1]): 5.46
Structure (SMILES): CC(C)NCC(C(=O)N1CCN(c2ncnc3[nH]nc(Cl)c23)CC1)c1ccc(Cl)cc1Cl (stereo not given)

inhibition [3]: 89% | bioavailability [5]: 41% | clearance [6]: 78.6 mL/min/kg | Vd [7]: 12.3 L/kg | inhibition [8]: 101% | inhibition [9]: 91% | MRT inf [10]: 2.43 h | inhibition [11]: < 60% | half-life [13]: 1.85 h | inhibition [17]: 64% | AUC(0-t) at 24 h [18]: 830 ng·h/mL | inhibition [21]: < 60% | inhibition [24]: < 60% | AUC(0-t) at 24 h [25]: 202 ng·h/mL | AUC(0-inf) [26]: 876 ng·h/mL | pIC50 (PC-3 [1]): 5.52 | MRT inf [28]: 1.68 h | inhibition [29]: < 60% | inhibition (Homo sapiens [30]): < 60% | Cmax [31]: 306 ng/mL | half-life [32]: 1.59 h | inhibition [33]: < 60% | inhibition [35]: 99% | inhibition (Homo sapiens [36]): 98% | inhibition [37]: < 60% | Tmax [38]: 0.5 h | AUC(0-inf) [39]: 214 ng·h/mL
Structure (SMILES): CC(C)NCC(C(=O)N1CCN(c2ncnc3[nH]nc(Br)c23)CC1)c1ccc(Br)cc1 (stereo not given)
Activity (PC-3 [2]): 9.23% | Activity (PC-3 [4]): 12.24% | Activity (PC-3 [12]): 12.28% | Activity (PC-3 [14]): >20% | Activity (PC-3 [15]): 36.75% | Activity (PC-3 [16]): Active; Negative Feedback Regulation Within Akt Signaling Pathway Observed | inhibition (PC-3 [19]): Active | Activity (PC-3 [20]): 10.04% | Activity (PC-3 [22]): 53.21% | Activity (PC-3 [23]): 52.45% | Activity (PC-3 [27]): 38.31% | Activity (PC-3 [34]): 38.35% | Activity (PC-3 [40]): 49.42%

pIC50 (PC-3 [1]): 5.54
Structure (SMILES): CC(C)NCC(C(=O)N1CCN(c2ncnc3[nH]nc(Cl)c23)CC1)c1ccc(Br)cc1 (stereo not given)
Activity (PC-3 [2]): 6.37% | Activity (PC-3 [4]): 14.35% | Activity (PC-3 [12]): 15.13% | Activity (PC-3 [14]): >20% | Activity (PC-3 [15]): 36.86% | Activity (PC-3 [16]): Active; Negative Feedback Regulation Within Akt Signaling Pathway Observed | inhibition (PC-3 [19]): Active | Activity (PC-3 [20]): 9.25% | Activity (PC-3 [22]): 53.89% | Activity (PC-3 [23]): 46.45% | Activity (PC-3 [27]): 47.17% | Activity (PC-3 [34]): 32.69% | Activity (PC-3 [40]): 52.46%
